Test results published in patent publication US20260200975A1, “PEPTIDE FOR CARTILAGE REGENERATION, AND USES THEREOF” (CAREGEN CO., LTD., priority 2022, published 2026).
Peptide text beside a SMILES is read from it.

System: human-derived chondrocytes (C28/12, human chondrocyte cell line)
Assay: Cytotoxicity by CCK-8 assay
Type: cell-based
Conditions: C28/12 cells, different concentrations, 3 days, absorbance 450 nm
Method: The cytotoxicity of Peptide-1 or Peptide-2 upon addition to human-derived chondrocytes (C28/12, human chondrocyte cell line) was analyzed using a CCK-8 assay.
Specifically, human-derived chondrocytes were seeded in a 96-well plate at a density of 3×10^3 cells/well and cultured in DMEM medium (cat. 11995-065, Gibco) for 24 hours. […] Meanwhile, as a positive control group, one to which TGFβ1 (20 ng/ml) was added was used.

Compound	toxicity in human-derived chondrocytes (CCK-8 activity)
CC(C)C[C@H](NC(=O)[C@@H](NC(=O)[C@@H](N)CCCNC(=N)N)[C@@H](C)O)C(=O)O [Peptide-2, Arg(R)-Thr(T)-Leu(L)] (H-Arg-Thr-Leu-OH)	did not exhibit toxicity
N[C@@H](CCC(=O)O)C(=O)N[C@@H](Cc1ccc(O)cc1)C(=O)N[C@@H](Cc1ccccc1)C(=O)N[C@@H](Cc1c[nH]c2ccccc12)C(=O)O [Peptide-1, Glu(E)-Tyr(Y)-Phe(F)-Trp(W)] (H-EYFW-OH)	did not exhibit toxicity
